According to patent publication US8975275B2, “Use of chemotherapeutic agents” (priority 1999, dated 2015):
Structures can show the parent of a compound that is named as a salt.

How the values were obtained:
Assay type in all cases: in vivo, human
[1] = test system: pulpitis due to carious diseases; test: Topical treatment of pulpitis due to carious diseases (patient cases)
Description: This is of great importance because, for example in the case of caries profunda, it is always necessary to decide whether softened residual dentin can be left over the pulp. By virtue of complete elimination of the microbes present, there is now a novel method of treatment wherein a thin softened dentin covering can be left if the compounds of formula (I) or formula (II) are used. This method of treatment makes it possible to free infected dentin layers of microbes and to stop pulp infections. This means that pain reactions are eliminated and pulp infections are to a certain extent cured. The pulp remains vital. The topical application of the compounds of formula (I) or formula (II) followed the removal of the carious dentin. The compounds of formula (I) or formula (II) were applied for example in aqueous solution, in a form of gelatinous consistency or on an inert carrier, for example by means of a cotton wool plug. The overlying cavity was occluded with a cement to seal the margins. The cotton wool plug was left in the cavity for three to six days. The compounds of formula (I) or formula (II) can be used in concentrations of 0.005 mg/ml to 200 mg/ml, Preferred concentrations are those ranging from 0.5 mg/ml to 150 mg/ml and particularly preferred concentrations are those ranging from 10 to 100 mg/ml.

[2] = test system: infected root canal and periapical region; test: Topical treatment of the infected root canal and the periapical region (patient cases)
Protocol: In the clinical use of the compounds of formula (I) or formula (II), the pulp residues are removed first. The preparation of the canals is carried out with minimum discomfort for the patient. The canals are then flushed with hydrogen peroxide, Other methods of disinfection can be omitted. The compounds of formula (I) or formula (II), in a liquid form of administration, are then introduced into the toot canal under pressure using a cannula. The compounds of formula (I) or (II) are then injected in dissolved form or in a gelatinous form of administration. The root canal is subsequently occluded in the crown region, first with a cotton wool plug and then with zinc phosphate cement to seal the margins. If the canals are not gangrenous, the antibiotics remain in the canals for 3 days. […] The compounds of formula (I) or formula (II) can be used in concentrations of 0.005 mg/ml to 200 mg/ml.
In this application technique, which is known from intraligamental anaesthesia, the tooth is completely flooded with the antibacterial solution of the compounds of formula (I) or formula (II) in the entire root region.

[3] = test system: dentin wounds; test: Prophylaxis of dentin wounds (patient cases)
Description: For this reason, after removal of the carious regions, the compounds of formula (I) or formula (II) are applied to the prepared cavities and rubbed in. Said compounds are applied in the form of solutions, gels or suspensions to form a local depot with an antibiotic action before the reliner is placed on and/or in the fundament of the inlays, onlays, crowns or bridges. […] A further advantage is that the tubule structure is not modified or denatured here, as is frequently the case with the current procedures using dentin protecting agents and impregnating agents. The microbe-free conditions achieved in this way have a permanent beneficial effect on prosthetic procedures since dentin hypersensitivities and subsequently secondary caries are effectively avoided.
The application of the compounds of formula (I) or formula (II) can either replace or complement the disinfecting treatment with hydrogen peroxide. The compounds of formula (I) or formula (II) can be applied in dissolved form or as a gel, optionally in the presence of solubilizers to promote a deep penetration of the chemotherapeutic agents into the dentinal tubules. Gels are used in the provisional care of dentin wounds and solutions are preferably used before the definitive fixing of e.g. crowns and bridges. The solutions or gels of the chemotherapeutic agents used are applied to the prepared dentin surfaces and gently rubbed in. Residues are then removed, for example with a cotton wool swab or air jet. Inlays, onlays, crowns or bridges can then be fixed. The compounds of formula (I) or formula (II) can be used in concentrations of 0.005 mg/ml to 200 mg/ml. Preferred concentrations are those ranging from 0.5 mg/ml to 150 mg/ml and particularly preferred concentrations are those ranging from 10 to 100 mg/ml.

COc1c(N2C[C@@H]3CCCN[C@@H]3C2)c(F)cc2c(=O)c(C(=O)O)cn(C3CC3)c12 [moxifloxacin hydrochloride, 1-cyclopropyl-6-fluoro-1,4-dihydro-8-methoxy-7-[(4aS,7aS)-octahydro-6H-pyrrolo[3,4-b]pyridin-6-yl]-4-oxo-3-quinolinecarboxylic acid]
clinical finding at check-up ([1]; Patient A 1.1, gel 25 mg/ml, after final filling, check-up after 3 weeks): tooth vital, patient symptom-free | clinical finding at check-up ([1]; Patient A 1.10, teeth 16, 17, 27, 36, 37, 46 occlusal caries, pellet inserts gel 50 mg/ml, check-up after 14 days): patient symptom-free, teeth vital | clinical finding at check-up ([1]; Patient A 1.1, tooth 24 carious defect, pellet insert gel 25 mg/ml, check-up after 4 days): patient was symptom-free | clinical finding at check-up ([1]; Patient A 1.2, gel 50 mg/ml, after final filling, check-up after 14 days): teeth vital, patient symptom-free | clinical finding at check-up ([1]; Patient A 1.2, teeth 11, 13 carious defects, pellet inserts gel 50 mg/ml, check-up after 1 week): teeth 11 and 13 symptom-free | clinical finding at check-up ([1]; Patient A 1.3, gel 25 mg/ml, repetition of insert, check-up after 3 days): tooth vital, patient symptom-free | clinical finding at check-up ([1]; Patient A 1.3, tooth 24 carious defect, pellet insert gel 25 mg/ml, check-up after one week): still slight discomfort of unknown origin | clinical finding at check-up ([1]; Patient A 1.4, major mesial carious defect, night pain, pellet inserts gel 50 mg/ml, check-up after 7 days): patient symptom-free, tooth vital | clinical finding at check-up ([1]; Patient A 1.5, tooth 13 weakly vital, night pain, pellet insert gel 50 mg/ml, check-up after 4 days): patient symptom-free, tooth vital | clinical finding at check-up ([1]; Patient A 1.6, gel 50 mg/ml, repetition of insert, check-up after 7 days): patient symptom-free, tooth vital | clinical finding at check-up ([1]; Patient A 1.6, tooth 36 reduced vitality, pellet insert gel 50 mg/ml, check-up after 6 days): still slight sensitivity to heat and cold | clinical finding at check-up ([1]; Patient A 1.7, tooth 44 reduced vitality, pellet inserts gel 50 mg/ml, check-up after 4 days): patient symptom-free | clinical finding at check-up ([1]; Patient A 1.8, tooth 36 reduced vitality, pellet insert gel 50 mg/ml, check-up after 3 weeks): patient symptom-free, tooth vital | clinical finding at check-up ([1]; Patient A 1.9, tooth 27, pellet insert gel 25 mg/ml, check-up after 7 days): patient symptom-free, tooth vital | clinical finding at check-up ([2]; Patient A 3.11, tooth 34 apical periodontitis, fistula, root canal insert gel 100 mg/ml, check-up after 10 days): patient symptom-free | clinical finding at check-up ([2]; Patient A 3.12, tooth 44 fistulation, gangrenous, solution 50 mg/ml by paper point + intraligamental injection 50 mg/ml, check-up after 8 days): patient symptom-free | clinical finding at check-up ([2]; Patient A 3.15, tooth 31 apical periodontitis due to gangrene, solution 50 mg/ml + gel 50 mg/ml + intraligamental injection 50 mg/ml, check-up after 9 days): patient symptom-free, canal odourless | clinical finding at check-up ([2]; Patient A 3.21, repetition of flushing and insert, check-up after 10 days): patient symptom-free | clinical finding at check-up ([2]; Patient A 3.21, tooth 22 fistula, gangrenous, flushing solution 50 mg/ml + gel 50 mg/ml + intraligamental injection 50 mg/ml, check-up after 8 days): patient still not fully symptom-free, canal still had very slight odor | clinical finding at check-up ([2]; Patient A 3.3, tooth 11 apical periodontitis due to gangrene, solution 50 mg/ml + gel 50 mg/ml + intraligamental injection 50 mg/ml, check-up after 3 days): patient symptom-free, canal odourless | clinical finding at check-up ([2]; Patient A 3.4, tooth 11 apical periodontitis, not gangrenous, root canal insert gel 50 mg/ml, check-up after 3 days): patient symptom-free | clinical finding at check-up ([2]; Patient A 3.5, tooth 35 apical periodontitis due to gangrene, solution 50 mg/ml + gel 50 mg/ml + intraligamental injection 50 mg/ml, check-up after 7 days): no gangrenous odour, no bite discomfort | clinical finding at check-up ([2]; Patient A 3.6, tooth 36 apical periodontitis due to gangrene, gel 50 mg/ml + intraligamental injection 50 mg/ml, check-up after 8 days): no gangrenous odour, patient symptom-free | clinical finding at check-up ([2]; Patient A 3.7, tooth 14 apical periodontitis due to gangrene, gel 100 mg/ml + intraligamental injection 50 mg/ml, check-up after 7 days): patient symptom-free | clinical finding at check-up ([2]; Patient A 3.8, tooth 34 apical periodontitis due to gangrene, gel 50 mg/ml + intraligamental injection 50 mg/ml, check-up after 13 weeks): patient symptom-free, canal odour-free | clinical finding at check-up ([2]; Patient A 3.9, tooth 46 apical periodontitis, not gangrenous, gel 100 mg/ml + intraligamental injection 50 mg/ml, check-up after 7 days): patient symptom-free | clinical finding at check-up ([3]; Patient A 2.1, teeth 33 and 36 prepared for bridge, solution 25 mg/ml to cavity, check-up after 3 weeks): patient symptom-free | clinical finding at check-up ([3]; Patient A 2.2, solution 50 mg/ml, after final filling, check-up after 4 weeks): teeth vital, patient symptom-free | clinical finding at check-up ([3]; Patient A 2.2, teeth 22, 23, 24, smear with solution 50 mg/ml, check-up after 2 weeks): teeth symptom-free | clinical finding at check-up ([3]; Patient A 2.3, teeth 14-17 cervical erosions, smear with solution 50 mg/m, check-up after 3 weeks): patient symptom-free | clinical finding at check-up ([3]; Patient A 2.4, teeth 11, 12, 21, 22 prepared for crowns, smear with solution 25 mg/ml, check-up after 3 weeks): patient symptom-free | clinical finding at check-up ([3]; Patient A 2.5, tooth 44, smear with solution 25 mg/ml, check-up after 9 days): patient symptom-free
